In patent US7063946B2, “Methods, reagents, kits and apparatus for protein function analysis” (Meso Scale Technologies, LLC., priority 2001, dated 2006):

Tests used:
FGFR2 = molecular target: T1, FGFR2 (Mus musculus, UniProt P21803); experiment: Kinase inhibitor profiling, pEY phosphorylation; type: biochemical
T1 construct: specificity data for proteins generated from a library of eighteen full-length clones; host or cells: rabbit reticulocyte lysate, TnT coupled in vitro transcription/translation (cell-free)
Experimental: Proteins were produced in an in vitro transcription and translation reaction. […] The unbound components of the reaction containing endogenous kinases were removed by three washes with TT-buffer (25 mM Tris-HCl buffer pH 7.4 and 0.004% Triton), two five minutes washings with high-salt wash buffer (25 mM Tris-HCl buffer pH 7.4, 0.004% Triton, 1M NaCl and 5 mM DTT) and 3 more washes with TT-buffer. To these immobilized and purified proteins a tyrosine kinase substrate, 5 nM pEY (poly Glu-Tyr, Sigma, MO), was added in a 50 μl reaction solution containing 5 mM MgCl2, 5 mM MnCl2, 100 μM ATP, 25 mM Tris-HCl buffer pH 7.4, 0.05 mM Na3VO4, 0.004% TritonX-100, 2 mM DTT and EDTA-free protease inhibitor (Roche Molecular Biochemicals). This mixture was incubated with shaking at room temperature overnight to allow phosphorylation of the pEY substrate by the immobilized kinases. Following this incubation, 45 μl of this mixture was transferred to a streptavidin or avidin-coated NPT IPR plate coated with biotinylated anti-phosphotyrosine antibody (PY20, Zymed labs, CA) followed by incubation for 30 minutes at room temperature to allow the binding of the phosphorylated pEY substrate to the PY20 coated NPT plate. Following this binding step, 50 ng Sulfo-TAG labeled anti-phosphotyrosine in buffer containing 25 mM Tris-HCl buffer pH 7.4, 5 mM MgCl2, 0.05 mM Na3VO4, 0.004% TritonX-100, 2 mM DTT and 0.05% IgG was added followed by incubation at room temperature for 30 mm. The unbound reagents were removed by one time washing with water, and the TAG label was detected in presence of 150 μl IPR assay buffer (0.4 mM Gly-Gly buffer, pH 7.8, 1 mM EDTA, 0.1 M TPA). The ECL signals were measured using an imaging plate reader.
Proteins were produced using 100 ng of plasmid DNA Mock (Luciferase, Promega) or tyrosine kinases (Fert2 IMAGE ID # 4485050, FGFR1 IMAGE ID # 4037899, Fgfr2 IMAGE ID # 2654352, Src IMAGE ID # 3156400, BMX IMAGE ID # 3919253, LCK IMAGE ID # 4191610, Epha7 IMAGE ID # 3991628, Ephb4 IMAGE ID # 4013934, Tek IMAGE ID # 3482498, HCK IMAGE ID # 4778819, BTK IMAGE ID # 4478463, CSK IMAGE ID # 4398416, SYK IMAGE ID # 3870426, FGR IMAGE ID # 4419973, PTK2B IMAGE ID # 4339456, FRK(IMAGE ID # 4515877, Kit IMAGE ID # 2644960, Fgfr-4 IMAGE ID # 4239139, NTRK3 IMAGE ID # 4181574, Kdr IMAGE ID # 4238984, Incyte Genomics, CA) and immobilized on SA or avidin coated NPT-IPR plates as described in previous examples. The unbound components of the translation reaction (including any endogenous kinases) were removed by 3 washes with TT-buffer (25 mM Tris-HCl buffer pH 7.4 and 0.004% Triton), two five minutes washes with high-salt wash buffer (25 mM Tris-HCl buffer pH 7.4, 0.004% Triton, 1M NaCl and 5 mM DTT) and 3 washes with TT-buffer. […] The mixture was incubated at room temperature for 10 mm before starting the kinase reaction by adding 25 μl of 200 μM ATP in buffer A. This mixture was incubated with intermittent shaking at room temperature for 2 hours to overnight to allow (a) phosphorylation of the pEY substrate and (b) autophosphorylation of the immobilized kinases. Autophosphorylation and phosphorylation of the pEY was measured as described in Examples 7 and 8.
The ECL signal in control wells produced by tyrosine kinases was compared to the wells containing inhibitor compounds. The signal produced from Mock was negligible.

[1] = test system: tyrosine kinases reported to be the target of each inhibitor; conditions: read-out: reported IC50 concentration (1× concentration); for the kinase reported to be the target of the inhibitor; cited from earlier work
Kdr = molecular target: T2, Kdr (Mus musculus, UniProt P35918); experiment: Kinase inhibitor profiling, autophosphorylation; type: biochemical
T2 construct: specificity data for proteins generated from a library of eighteen full-length clones; biotin on random lysines (biotin-Lys-tRNA); host or cells: rabbit reticulocyte lysate, coupled transcription/translation (TnT, Promega)
Experimental: Proteins were produced from DNA plasmids of Mock Luciferase, Promega, tyrosine kinase clone Spleen Tyrosine kinase (SYK, IMAGE ID# 3870426) and Eph receptor-A7 (EphA7, IMAGE ID# 3991628) (Incyte Genomics, CA) and immobilized on streptavidin or avidin coated NPT-IPR plates as described in the Example 7. To promote autophosphorylation in these immobilized and purified proteins, Mn++ ions were added in a 50 μl reaction containing 5 mM MgCl2, 5 mM MnCl2, 100 μM ATP, 25 mM Tris-HCl buffer pH 7.4, 0.05 mM Na3VO4, 0.004% TritonX-100, 2 mM DTT and EDTA-free protease inhibitor (Roche Molecular Biochemicals). This mixture was incubated with shaking at room temperature overnight to allow autophosphorylation. Following this incubation, wells were washed 2 times with TT-buffer and 2 times with water. Following this step, 50 ng Sulfo-TAG labeled anti-phosphotyrosine in buffer containing 25 mM Tris-HCl buffer pH 7.4, 5 mM MgCl2, 0.05 mM Na3VO4, 0.004% TritonX-100, 2 mM DTT and 0.05% IgG in a final volume of 50 μl was added followed by incubation at room temperature for 45 min. The unbound reagents were removed by one time washing with water, and the TAG label was detected in presence of 150 μl IPR assay buffer (0.4 mM Gly—Gly buffer, pH 7.8, 1 mM EDTA, 0.1 M TPA). The ECL signals were measured using an imaging plate reader.
The unbound components of the translation reaction (including any endogenous kinases) were removed by 3 washes with TT-buffer (25 mM Tris-HCl buffer pH 7.4 and 0.004% Triton), two five minutes washes with high-salt wash buffer (25 mM Tris-HCl buffer pH 7.4, 0.004% Triton, 1M NaCl and 5 mM DTT) and 3 washes with TT-buffer. […] The mixture was incubated at room temperature for 10 mm before starting the kinase reaction by adding 25 μl of 200 μM ATP in buffer A. This mixture was incubated with intermittent shaking at room temperature for 2 hours to overnight to allow (a) phosphorylation of the pEY substrate and (b) autophosphorylation of the immobilized kinases. Autophosphorylation and phosphorylation of the pEY was measured as described in Examples 7 and 8.
The ECL signal in control wells produced by tyrosine kinases was compared to the wells containing inhibitor compounds.

T1 sequence (P21803 22-821): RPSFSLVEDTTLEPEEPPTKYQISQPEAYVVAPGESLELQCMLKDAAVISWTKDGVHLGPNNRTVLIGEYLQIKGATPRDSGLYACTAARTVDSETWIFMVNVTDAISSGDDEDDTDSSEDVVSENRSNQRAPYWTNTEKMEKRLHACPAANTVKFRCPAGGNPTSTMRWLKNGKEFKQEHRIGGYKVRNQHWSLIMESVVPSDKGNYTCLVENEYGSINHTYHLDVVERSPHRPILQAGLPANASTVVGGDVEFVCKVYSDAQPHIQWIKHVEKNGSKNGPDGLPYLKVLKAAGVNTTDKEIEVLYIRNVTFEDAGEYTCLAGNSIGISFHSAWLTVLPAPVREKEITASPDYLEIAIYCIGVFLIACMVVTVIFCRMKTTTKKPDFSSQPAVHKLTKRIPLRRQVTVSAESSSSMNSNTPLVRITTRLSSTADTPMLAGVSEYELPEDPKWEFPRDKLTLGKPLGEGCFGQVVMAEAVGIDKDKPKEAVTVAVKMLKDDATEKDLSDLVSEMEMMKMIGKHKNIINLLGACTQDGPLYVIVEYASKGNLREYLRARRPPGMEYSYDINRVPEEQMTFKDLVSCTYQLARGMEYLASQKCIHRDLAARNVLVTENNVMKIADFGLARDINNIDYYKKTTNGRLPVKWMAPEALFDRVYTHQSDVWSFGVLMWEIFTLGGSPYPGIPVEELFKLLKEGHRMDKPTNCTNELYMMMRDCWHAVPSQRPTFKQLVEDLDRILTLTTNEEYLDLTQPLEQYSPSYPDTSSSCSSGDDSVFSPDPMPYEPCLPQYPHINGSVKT
T2 sequence (P35918 20-1345): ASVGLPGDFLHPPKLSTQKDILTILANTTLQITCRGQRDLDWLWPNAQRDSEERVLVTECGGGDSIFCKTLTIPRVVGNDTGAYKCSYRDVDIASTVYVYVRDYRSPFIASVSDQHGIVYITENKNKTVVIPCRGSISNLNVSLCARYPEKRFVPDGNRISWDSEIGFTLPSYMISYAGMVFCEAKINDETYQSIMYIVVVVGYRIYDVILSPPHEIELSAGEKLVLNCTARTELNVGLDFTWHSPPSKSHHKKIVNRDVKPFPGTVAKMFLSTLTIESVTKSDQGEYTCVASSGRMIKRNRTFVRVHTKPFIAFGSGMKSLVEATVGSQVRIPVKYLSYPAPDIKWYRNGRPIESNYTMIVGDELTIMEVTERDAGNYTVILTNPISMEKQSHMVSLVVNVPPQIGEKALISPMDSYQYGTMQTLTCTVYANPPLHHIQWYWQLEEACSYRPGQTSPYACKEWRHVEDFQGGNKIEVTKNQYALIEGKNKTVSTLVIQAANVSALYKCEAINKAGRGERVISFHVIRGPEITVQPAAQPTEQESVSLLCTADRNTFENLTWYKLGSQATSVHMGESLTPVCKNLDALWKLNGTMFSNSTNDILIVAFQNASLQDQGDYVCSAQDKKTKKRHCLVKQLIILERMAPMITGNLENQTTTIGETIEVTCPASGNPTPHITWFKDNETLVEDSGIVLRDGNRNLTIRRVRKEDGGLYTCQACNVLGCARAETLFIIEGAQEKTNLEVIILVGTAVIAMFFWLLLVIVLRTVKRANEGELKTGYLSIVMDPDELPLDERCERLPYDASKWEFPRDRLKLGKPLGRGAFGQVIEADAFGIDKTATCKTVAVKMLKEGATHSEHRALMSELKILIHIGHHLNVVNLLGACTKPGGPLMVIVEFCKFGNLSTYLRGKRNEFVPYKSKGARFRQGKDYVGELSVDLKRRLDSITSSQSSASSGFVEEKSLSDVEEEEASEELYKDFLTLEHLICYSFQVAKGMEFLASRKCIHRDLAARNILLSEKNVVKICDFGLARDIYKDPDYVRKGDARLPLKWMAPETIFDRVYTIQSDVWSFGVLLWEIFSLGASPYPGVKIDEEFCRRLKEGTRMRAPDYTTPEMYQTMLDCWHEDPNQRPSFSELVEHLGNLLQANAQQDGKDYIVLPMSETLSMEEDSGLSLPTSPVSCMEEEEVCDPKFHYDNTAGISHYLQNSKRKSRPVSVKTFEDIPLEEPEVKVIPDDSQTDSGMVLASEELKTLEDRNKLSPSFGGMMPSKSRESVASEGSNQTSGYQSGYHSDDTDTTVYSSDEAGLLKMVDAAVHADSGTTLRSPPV

Compound: COC(=O)c1ccc(NCc2cc(O)ccc2O)cc1 [AG-957]
- Inhibition specificity towards pEY phosphorylation at 10X IC50, FGFR2 (FGFR2): L (low inhibition (“L”=between 50–75% of the activity remaining))
- IC50 [1]: 0.75 µM
- Inhibition specificity towards Autophosphorylation at 10X IC50, Kdr (Kdr): L (low inhibition (“L”=between 50–75% of the activity remaining))

Compound: CC(C)(C)c1cc(C=C(C#N)C#N)cc(Br)c1O [AG-1024]
- Inhibition specificity towards pEY phosphorylation at 10X IC50, FGFR2 (FGFR2): L (low inhibition (“L”=between 50–75% of the activity remaining))
- IC50 [1]: 18 µM

Compound: Cc1cc2ncc(-c3ccc(O)c(O)c3)nc2cc1C [AG-1433]
- Inhibition specificity towards pEY phosphorylation at 10X IC50, FGFR2 (FGFR2): H (high inhibition (“H”=less than 25% of the activity remaining))
- IC50 [1]: 5 µM
- Inhibition specificity towards Autophosphorylation at 10X IC50, Kdr (Kdr): H (high inhibition (“H”=less than 25% of the activity remaining))

Compound: COc1c(C=O)c(O)cc2c1C(=O)c1ccccc1C2=O [Damnacanthal]
- Inhibition specificity towards pEY phosphorylation at 10X IC50, FGFR2 (FGFR2): H (high inhibition (“H”=less than 25% of the activity remaining))
- IC50 [1]: 0.62 µM
- Inhibition specificity towards Autophosphorylation at 10X IC50, Kdr (Kdr): H (high inhibition (“H”=less than 25% of the activity remaining))

Compound: Cc1ccc(-c2nn(C(C)(C)C)c3ncnc(N)c23)cc1 [PP1]
- IC50 [1]: 0.6 µM
- Inhibition specificity towards Autophosphorylation at 10X IC50, Kdr (Kdr): L (low inhibition (“L”=between 50–75% of the activity remaining))

Compound: COc1cc2ncnc(Nc3ccc(Cl)cc3F)c2cc1OC [VEGFR inhibitor]
- Inhibition specificity towards pEY phosphorylation at 10X IC50, FGFR2 (FGFR2): L (low inhibition (“L”=between 50–75% of the activity remaining))
- IC50 [1]: 2 µM
- Inhibition specificity towards Autophosphorylation at 10X IC50, Kdr (Kdr): M (medium inhibition (“M”=between 25 to 50% of the activity remaining))

Compound: COc1cc2ncnc(Nc3ccc(O)cc3)c2cc1OC [WHI-P131]
- Inhibition specificity towards pEY phosphorylation at 10X IC50, FGFR2 (FGFR2): L (low inhibition (“L”=between 50–75% of the activity remaining))
- IC50 [1]: 7.8 µM
- Inhibition specificity towards Autophosphorylation at 10X IC50, Kdr (Kdr): M (medium inhibition (“M”=between 25 to 50% of the activity remaining))

Compound: Erbstatin analog
- IC50 [1]: 0.78 µM
- Inhibition specificity towards Autophosphorylation at 10X IC50, Kdr (Kdr): L (low inhibition (“L”=between 50–75% of the activity remaining))
